Measured values: patent publication US20250250227A1, “AMINO LIPID COMPOUND, PREPARATION METHOD THEREFOR, COMPOSITION THEREOF AND USE THEREOF” (SHENZHEN SHENXIN BIOTECHNOLOGY CO., LTD., priority 2022, published 2025)

Key:
[1] = Preparation and characterisation of mRNA-encapsulating lipid nanoparticle (encapsulation efficiency, particle size); format: physicochemical; details: LNP encapsulating Fluc mRNA; Lipid:DSPC:CHO-HP:M-DMG-2000 48:10:40.5:1.5
Protocol: A specified amount of Fluc mRNA stock solution, 0.2 M sodium acetate buffer, and DEPC water were added to a container, and mixed well to obtain a water phase;
The amino lipid compound of the present disclosure, a helper lipid, a structural lipid, and a PEG-lipid were separately dissolved in absolute ethanol to prepare respective solutions at concentrations of 20 mg/mL, 10 mg/mL, 20 mg/mL, and 25 mg/mL, respectively. The above four solutions were pipetted at a molar ratio of Lipid:DSPC:CHO—HP:M-DMG-2000 of 48:10:40.5:1.5, and mixed well to prepare an alcohol phase. • (2) Encapsulation: The water phase and the alcohol phase were injected into a microfluidic chip at a flow rate of water phase: alcohol phase=12 mL/min: 4 mL/min by using a microfluidic preparation instrument (MPE-L2), and encapsulation was carried out at a flow rate of water phase: alcohol phase=9 mL/min: 3 mL/min to obtain mRNA-encapsulating lipid nanoparticle (mRNA-LNP). • (3) Dialysis: The product of step (2) was loaded in a dialysis bag and placed in a Tris Buffer-8% sucrose solution for replacement to remove ingredients such as residual ethanol, unassembled lipids. Dialysis was conducted for 2 h with magnetic stirring at room temperature and under protection from light (dialysate was replaced every 1 hour). • (4) The product of step (3) was sterilized by passing through a […] microporous membrane, and then packaged.
Lipid nanoparticle formulations encapsulating Fluc mRNA were prepared, with a concentration of Fluc mRNA of 0.2 g/L, a mass ratio of Fluc mRNA to Lipid of 1:10, a particle size of 80-130 nm, and a encapsulation efficiency of 85% or higher.
The encapsulation efficiency of the lipid nanoparticle encapsulating luciferase mRNA (Fluc mRNA) with a representative amino lipid compound and the fluorescence expression intensity induced by the same are shown in Table 4, with the amino lipid compound 118 as a control. […]

[2] = test system: Female BALB/c mice; experiment: Performance evaluation of in vivo delivery of Fluc mRNA lipid nanoparticle (IVIS, body and organs); details: Fluc mRNA LNP; for Liver (fluorescence expression intensity) / Spleen (fluorescence expression intensity): 75 μL IV; for Liver (fluorescence expression intensity) / Spleen (fluorescence expression intensity) / Total flux (fluorescence expression intensity) / (Spleen/Total Flux) * 100%: 6 hours after injection; for Liver (fluorescence expression intensity) / Spleen (fluorescence expression intensity) / Total flux (fluorescence expression intensity): IVIS; for Total flux (fluorescence expression intensity): 75 μL tail vein injection (IV); for (Spleen/Total Flux) * 100% / Multiple of spleen delivery/total delivery to amino lipid compound 118: IV; for Multiple of spleen delivery/total delivery to amino lipid compound 118: relative to amino lipid compound 118
Protocol: Animal preparation: Female BALB/c mice of 6-8 weeks old were selected and raised in an SPF grade breeding room. Animal testing was conducted in strict accordance with the guidelines of national health institutions and animal ethics requirements.
In vivo Delivery: prior to injection of the test LNP formulations, the LNP formulations were gently and repeatedly inverted to thoroughly mix the formulation samples. A corresponding amount of the formulation samples were aspirated with a 1 ml insulin syringe, and the LNP formulations were injected by tail vein injection (IV), with 3 mice in duplicate per formulation. Each mouse was injected with 75 μL of the luciferase mRNA (Fluc mRNA)-encapsulating lipid nanoparticle formulation prepared in Experimental Example 1.
6 hours after injection of LNP formulations, mice were injected with 200 μL D-Luciferin luciferase developing substrate (Catalog No. 122799; Manufacturer: Perkin Elmer). After the substrate was injected, the mice were anesthetized with isoflurane inhalation, and the injection time of luciferase developing substrate was recorded.
The encapsulation efficiency of the lipid nanoparticle encapsulating luciferase mRNA (Fluc mRNA) with a representative amino lipid compound and the fluorescence expression intensity induced by the same are shown in Table 4, with the amino lipid compound 118 as a control.
The multiple of spleen delivery/total delivery of fluorescence expression intensity induced by lipid nanoparticle encapsulating luciferase mRNA (Fluc mRNA) with a representative amino lipid compound to amino lipid compound 118 is shown in Table 5.

Structure (SMILES) | Encapsulation efficiency [1] [%] | Liver (fluorescence expression intensity) [2] | Spleen (fluorescence expression intensity) [2] | Total flux (fluorescence expression intensity) [2] | (Spleen/Total Flux) * 100% [2] [%] | Multiple of spleen delivery/total delivery to amino lipid compound 118 [2]
CCCCCCC(CCCCCC)OC(=O)CCCCCCCCC(CCCCCCCCC(=O)OC(CCCCCC)CCCCCC)OC(=O)N(CCCC(=O)OC(C)CCC)CCCN(C)C (stereo not drawn) [Compound 309] | 91.62 | 4.90E+07 | 3.44E+06 | 3.69E+08 | 0.93 | 2.74
CCCCCCC(CCCCCC)OC(=O)CCCCCCCCC(CCCCCCCCC(=O)OC(CCCCCC)CCCCCC)OC(=O)N(CCCN(C)C)CCC(=O)OC(C)C [Compound 316] | 90.67 | 1.26E+08 | 2.03E+07 | 8.16E+08 | 2.49 | 7.32
CCCCCCC(CCCCCC)OC(=O)CCCCCCCCC(CCCCCCCCC(=O)OC(CCCCCC)CCCCCC)OC(=O)N(CCCN(C)C)CCC(=O)OC(C)CCCC (stereo not drawn) [Compound 320] | 92.13 | 1.13E+08 | 4.97E+06 | 7.04E+08 | 0.71 | 2.08
CCCCCCC(CCCCCC)OC(=O)CCCCCCCCC(CCCCCCCCC(=O)OC(CCCCCC)CCCCCC)OC(=O)N(CCCN(C)C)CCC(=O)OC(CC)CCC (stereo not drawn) [Compound 321] | 93.85 | 1.27E+08 | 1.47E+07 | 7.21E+08 | 2.04 | 6.00
CCCCCCC(CCCCCC)OC(=O)CCCCCCCCC(CCCCCCCCC(=O)OC(CCCCCC)CCCCCC)OC(=O)N(CCCN(C)C)CCC(=O)OC(C)CCCCC (stereo not drawn) [Compound 322] | 90.32 | 9.73E+07 | 6.56E+06 | 7.90E+08 | 0.83 | 2.44
CCCCCCC(C)OC(=O)CN(CCCN(C)C)C(=O)OC(CCCCCCCCC(=O)OC(CCCCCC)CCCCCC)CCCCCCCCC(=O)OC(CCCCCC)CCCCCC (stereo not drawn) [Compound 337] | 92.38 | 6.49E+07 | 3.30E+06 | 3.58E+08 | 0.92 | 2.71
CCCCCCC(CCCCCC)OC(=O)CCCCCCCCC(CCCCCCCCC(=O)OC(CCCCCC)CCCCCC)OC(=O)N(CCCN(C)C)CC(=O)OC(CC)CCCCC (stereo not drawn) [Compound 338] | 91.13 | 1.07E+08 | 3.20E+06 | 6.32E+08 | 0.51 | 1.49
CCCCCCC(CCCCCC)OC(=O)CCCCCCCCC(CCCCCCCCC(=O)OC(CCCCCC)CCCCCC)OC(=O)N(CCCCCC(=O)OCC)CCCN1CCCC1 [Compound 365] | 92.45 | 9.03E+07 | 4.45E+06 | 6.73E+08 | 0.66 | 1.94
CCCCCCC(CCCCCC)OC(=O)CCCCCCCCC(CCCCCCCCC(=O)OC(CCCCCC)CCCCCC)OC(=O)N(CCCCCC(=O)OCC)CCCCN1CCCC1 [Compound 366] | 93.63 | 8.92E+07 | 4.11E+06 | 5.82E+08 | 0.71 | 2.08
CCCCCCC(CCCCCC)OC(=O)CCCCCCCCC(CCCCCCCCC(=O)OC(CCCCCC)CCCCCC)OC(=O)N(CCCN1CCCC1)CC(=O)OCC [Compound 367] | 91.21 | 1.06E+07 | 4.33E+05 | 9.45E+07 | 0.46 | 1.35
CCCCCCC(CCCCCC)OC(=O)CCCCCCCCC(CCCCCCCCC(=O)OC(CCCCCC)CCCCCC)OC(=O)N(CCCCN1CCCC1)CC(=O)OCC [Compound 368] | 87.51 | 6.14E+07 | 1.25E+07 | 3.97E+08 | 3.15 | 9.26
CCCCCCC(CCCC)COC(=O)CCCCCCCCC(CCCCCCCCC(=O)OCC(CCCC)CCCCCC)OC(=O)N(CCCC(=O)OCCCCC)CCCN(C)C (stereo not drawn) [Compound 371] | 93.17 | 2.92E+08 | 2.36E+07 | 1.12E+09 | 2.11 | 6.20
CCCCCCOC(=O)CCN(CCCN(C)C)C(=O)OC(CCCCCCCCC(=O)OCC(CCCC)CCCCCC)CCCCCCCCC(=O)OCC(CCCC)CCCCCC (stereo not drawn) [Compound 372] | 92.17 | 1.67E+08 | 8.59E+06 | 5.43E+08 | 1.58 | 4.65
CCCCCCCOC(=O)CCN(CCCN(C)C)C(=O)OC(CCCCCCCCC(=O)OCC(CCCC)CCCCCC)CCCCCCCCC(=O)OCC(CCCC)CCCCCC (stereo not drawn) [Compound 373] | 92.01 | 9.15E+07 | 6.93E+06 | 4.77E+08 | 1.45 | 4.27
CCCCCCCOC(=O)CN(CCCN(C)C)C(=O)OC(CCCCCCCCC(=O)OCC(CCCC)CCCCCC)CCCCCCCCC(=O)OCC(CCCC)CCCCCC (stereo not drawn) [Compound 375] | 94.18 | 1.55E+08 | 7.63E+06 | 4.06E+08 | 1.88 | 5.53
